Patent US20230310452A1, “BROMODOMAIN AND EXTRA TERMINAL DOMAIN (BET) INHIBITOR COMPOSITIONS AND METHODS THEREOF FOR USE AS ANTI-AGING AGENTS” (MDI Biological Laboratory, priority 2020, published 2023)
“Also recorded” adds a separate entry of the source.

What was measured:
CGI- gene expression [1] = test: CGI- gene expression upon treatment with BET inhibitors other than JQ1 in cell lines/tissues (FIG. 14); format: cell-based; conditions: indicated cell lines/tissues, concentrations, durations, vs untreated controls
Excerpt: Moreover, the cell line or tissue used in the BET inhibitor treatment, as well as treatment duration and concentration were also provided.

CGI- genes / CGI+ genes = test: Gene expression changes upon JQ1 treatment versus untreated controls (FIGS. 12A-12C); format: cell-based
Excerpt: (§1) FIG. 12 illustrates JQ1 treatment suppresses CGI- gene misexpression. FIGS. 12A-12B show gene expression changes upon JQ1 treatment. […] All data are from the comparison of JQ1 treated with untreated controls for CGI+ genes (upper) and CGI- genes (lower) for each cell type. TAC: transverse aortic constriction. […] Representative data from three blind tests with similar results are shown. The control (Con) curve is to the left of the JQ1 treatment curve from 12-19 days post treatment.
BET family proteins (e.g., BRD2/4) are also components of local enhancer mediated transcriptional activation (FIG. 11A).
(§2) The effects of JQ1 on C. elegans lifespan was also tested. […] Treatment with BET inhibitors can suppress misexpression of CGI- genes during aging, and that this, in turn, will delay age-associated degenerative changes in mice.

C. elegans = C. elegans lifespan after one-time JQ1 treatment (FIG. 12D); format: in vivo; conditions: representative of three blind tests
Excerpt: as §1, §2

CGI- gene expression [2] = test: JQ1 in vivo treatment of mice, published RNA-seq data, CGI- gene expression (FIG. 13); conditions: intraperitoneal injections of 50 mg/kg/day, vs untreated controls
Method: FIG. 13 illustrates JQ1 in vivo treatment data based on published RNA-seq data generated from mice by intraperitoneal injections of 50 mg/kg/day as indicated. All data are from the comparison with untreated controls for CGI+ genes (upper) and CGI- genes (lower) for each of *p < 0.05; **p < 0.01, ***p< 0.001. Sham operation; transverse aortic constriction (TAC); myocardial infarction (MI).
All of the data were based on published RNA-seq data and compared to untreated controls for CGI+ and CGI- genes.

[3] = cited from earlier work
BET = conditions: cited from earlier work

CCS(=O)(=O)Nc1ccc(Oc2ccc(F)cc2F)c(-c2cn(C)c(=O)c3[nH]ccc23)c1 [ABBV-075, N-(4-(2,4-difluorophenoxy)-3-(6-methyl-7-oxo-6,7-dihydro-1H-pyrrolo[2,3-c]pyridin-4-yl)phenyl)ethanesulfonamide]
CGI- gene expression upon BET inhibitors other than JQ1 (CGI- gene expression [1]): suppress Cytosine-phosphate-Guanine (CpG) island negative genes

CCNC(=O)c1cc2c(-c3cc(C(C)(C)O)ccc3Oc3c(C)cc(F)cc3C)cn(C)c(=O)c2[nH]1 [ABBV-744, N-ethyl-4-(2-(4-fluoro-2,6-dimethylphenoxy)-5-(2-hydroxypropan-2-yl)phenyl)-6-methyl-7-oxo-6,7-dihydro-1H-pyrrolo[2,3-c]pyridine-2-carboxamide]
CGI- gene expression upon BET inhibitors other than JQ1 (CGI- gene expression [1]): suppress Cytosine-phosphate-Guanine (CpG) island negative genes

Cc1sc2c(c1C)C(c1ccc(Cl)cc1)=N[C@@H](CC(=O)Nc1ccc(OCCOCCOCCOCCNc3cccc4c3C(=O)N(C3CCC(=O)NC3=O)C4=O)cc1)c1nnc(C)n1-2 (stereo partly drawn) [ARV-825, 2-((S)-4-(4-chlorophenyl)-2,3,9-trimethyl-6H-thieno[3,2-f][1,2,4]triazolo [4,3-a][1,4]diazepin-6-yl)-N-(4-(2-(2-(2-(2-((2-(2,6-dioxopiperidin-3-yl)-1,3-dioxoisoindolin-4-yl)amino)ethoxy)ethoxy)ethoxy)ethoxy)phenyl)acetamide]
CGI- gene expression upon BET inhibitors other than JQ1 (CGI- gene expression [1]): suppress Cytosine-phosphate-Guanine (CpG) island negative genes

COc1nnc2ccc(N3CCC(c4ccc(OCCN5CCN(C)C(=O)[C@H]5C)cc4)CC3)nn12 [AZD 5153, (R)-4-(2-(4-(1-(3-methoxy-[1,2,4]triazolo[4,3-b]pyridazin-6-yl)piperidin-4-yl)phenoxy)ethyl)-1,3-dimethylpiperazin-2-one]
CGI- gene expression upon BET inhibitors other than JQ1 (CGI- gene expression [1]): suppress Cytosine-phosphate-Guanine (CpG) island negative genes

Cc1sc2c(c1C)C(c1ccc(Cl)cc1)=N[C@@H](CC(N)=O)c1nnc(C)n1-2 [CPI-203, (S)-2-(4-(4-chlorophenyl)-2,3,9-trimethyl-6H-thieno[3,2-f][1,2,4]triazolo [4,3-a][1,4]diazepin-6-yl)acetamide]
CGI- gene expression upon BET inhibitors other than JQ1 (CGI- gene expression [1]): suppress Cytosine-phosphate-Guanine (CpG) island negative genes

COc1cc2c(cc1-c1c(C)noc1C)ncc1[nH]c(=O)n([C@H](C)c3ccccn3)c12 [I-BET 151, (R)-7-(3,5-dimethylisoxazol-4-yl)-8-methoxy-1-(1-(pyridin-2-yl)ethyl)-1,3-dihydro-2H-imidazo[4,5-c]quinolin-2-one]
CGI- gene expression upon BET inhibitors other than JQ1 (CGI- gene expression [1]): suppress Cytosine-phosphate-Guanine (CpG) island negative genes

Cc1sc2c(c1C)C(c1ccc(Cl)cc1)=N[C@@H](CC(=O)OC(C)(C)C)c1nnc(C)n1-2 [JQ1, tert-butyl (S)-2-(4-(4-chlorophenyl)-2,3,9-trimethyl-6H-thieno[3,2-f][1,2,4]triazolo[4,3-a][1,4]diazepin-6-yl)acetate]
overlap of CGI- genes downregulated by JQ1 with CGI- genes upregulated during aging or upon nuclear architecture disruption (CGI- genes / CGI+ genes; FIG. 12C): largely overlapped | CGI- gene expression upon JQ1 treatment (CGI- genes / CGI+ genes; JQ1 treated vs untreated controls, each cell type, FIGS. 12A-12B): global downregulation of CGI- gene expression; also recorded: suppresses CGI- gene expression | CGI+ gene expression upon JQ1 treatment (CGI- genes / CGI+ genes; JQ1 treated vs untreated controls, FIGS. 12A-12B): not significantly affected | median lifespan of adult C. elegans (C. elegans): significantly extended the median lifespan; also recorded: lifespan extension | CGI- gene expression in mice (CGI- gene expression [2]): suppression of CGI- gene expression | safety for humans [3]: safe for humans

COC(=O)C[C@@H]1N=C(c2ccc(Cl)cc2)c2c(sc(C)c2C)-n2c(C)nnc21 [MS417, methyl (S)-2-(4-(4-chlorophenyl)-2,3,9-trimethyl-6H-thieno[3,2-f][1,2,4]triazolo[4,3-a][1,4]diazepin-6-yl)acetate]
CGI- gene expression upon BET inhibitors other than JQ1 (CGI- gene expression [1]): suppress Cytosine-phosphate-Guanine (CpG) island negative genes

Cc1sc2c(c1C)C(c1ccc(Cl)cc1)=N[C@@H](CC(=O)NCCCCCCCCCCNC(=O)C[C@@H]1N=C(c3ccc(Cl)cc3)c3c(sc(C)c3C)-n3c(C)nnc31)c1nnc(C)n1-2 [MS645, (S)-N,N′-(decane-1,10-diyl)bis(2-((6S)-4-(4-chlorophenyl)-2,3,9-trimethyl-6H-thieno[3,2-f] [1,2,4]triazolo[4,3-a][1,4]diazepin-6-yl)acetamide)]
CGI- gene expression upon BET inhibitors other than JQ1 (CGI- gene expression [1]): suppress Cytosine-phosphate-Guanine (CpG) island negative genes

Cc1noc(C)c1-c1cnc2c(-c3ccc(C(=O)O)cc3)cn([C@@H](C)c3ccccn3)c2c1 [PLX51107, (S)-4-(6-(3,5-dimethylisoxazol-4-yl)-1-(1-(pyridin-2-yl)ethyl)-1H-pyrrolo[3,2-b]pyridin-3-yl)benzoic acid]
CGI- gene expression upon BET inhibitors other than JQ1 (CGI- gene expression [1]): suppress Cytosine-phosphate-Guanine (CpG) island negative genes

COc1cc(-c2cn(C)c(=O)c3cnccc23)cc(OC)c1CN(C)CC(=O)NCCOCCOCCNc1cccc2c1C(=O)N(C1CCC(=O)NC1=O)C2=O.Cl.Cl (centres unmarked) [dBRD9, 2-[[[4-(1,2-Dihydro-2-methyl-1-oxo-2,7-naphthyridin-4-yl)-2-6-dimethoxyphenyl]methyl]methylamino]-N-[2-[2-[2-[[2-(2,6-dioxo-3-piperidinyl)-2,3-dihydro-1,3-dioxo-1H-isoindol-4-yl]amino]ethoxy]ethoxy]ethyl] acetamide dihydrochloride]
CGI- gene expression upon BET inhibitors other than JQ1 (CGI- gene expression [1]): suppress Cytosine-phosphate-Guanine (CpG) island negative genes

Oc1ccc(C=Cc2cc(O)cc(O)c2)cc1 [resveratrol]
pan-BET inhibitor activity (BET): pan-BET inhibitor activity
